Source: ChEMBL document CHEMBL5226325, “Optimization of a Screening Hit toward M2912, an Oral Tankyrase Inhibitor with Antitumor Activity in Colorectal Cancer Models” (J Med Chem, 2021)

Assays:
[1] = target: T1, Poly [ADP-ribose] polymerase tankyrase-1 (Homo sapiens, UniProt O95271); assay: Inhibition of TNKS1 (unknown origin) using biotinylated NAD as substrate assessed as inhibition of autoPARsylation activity incubated for 90 mins by TR-FRET analysis
T1 sequence (O95271 whole entry): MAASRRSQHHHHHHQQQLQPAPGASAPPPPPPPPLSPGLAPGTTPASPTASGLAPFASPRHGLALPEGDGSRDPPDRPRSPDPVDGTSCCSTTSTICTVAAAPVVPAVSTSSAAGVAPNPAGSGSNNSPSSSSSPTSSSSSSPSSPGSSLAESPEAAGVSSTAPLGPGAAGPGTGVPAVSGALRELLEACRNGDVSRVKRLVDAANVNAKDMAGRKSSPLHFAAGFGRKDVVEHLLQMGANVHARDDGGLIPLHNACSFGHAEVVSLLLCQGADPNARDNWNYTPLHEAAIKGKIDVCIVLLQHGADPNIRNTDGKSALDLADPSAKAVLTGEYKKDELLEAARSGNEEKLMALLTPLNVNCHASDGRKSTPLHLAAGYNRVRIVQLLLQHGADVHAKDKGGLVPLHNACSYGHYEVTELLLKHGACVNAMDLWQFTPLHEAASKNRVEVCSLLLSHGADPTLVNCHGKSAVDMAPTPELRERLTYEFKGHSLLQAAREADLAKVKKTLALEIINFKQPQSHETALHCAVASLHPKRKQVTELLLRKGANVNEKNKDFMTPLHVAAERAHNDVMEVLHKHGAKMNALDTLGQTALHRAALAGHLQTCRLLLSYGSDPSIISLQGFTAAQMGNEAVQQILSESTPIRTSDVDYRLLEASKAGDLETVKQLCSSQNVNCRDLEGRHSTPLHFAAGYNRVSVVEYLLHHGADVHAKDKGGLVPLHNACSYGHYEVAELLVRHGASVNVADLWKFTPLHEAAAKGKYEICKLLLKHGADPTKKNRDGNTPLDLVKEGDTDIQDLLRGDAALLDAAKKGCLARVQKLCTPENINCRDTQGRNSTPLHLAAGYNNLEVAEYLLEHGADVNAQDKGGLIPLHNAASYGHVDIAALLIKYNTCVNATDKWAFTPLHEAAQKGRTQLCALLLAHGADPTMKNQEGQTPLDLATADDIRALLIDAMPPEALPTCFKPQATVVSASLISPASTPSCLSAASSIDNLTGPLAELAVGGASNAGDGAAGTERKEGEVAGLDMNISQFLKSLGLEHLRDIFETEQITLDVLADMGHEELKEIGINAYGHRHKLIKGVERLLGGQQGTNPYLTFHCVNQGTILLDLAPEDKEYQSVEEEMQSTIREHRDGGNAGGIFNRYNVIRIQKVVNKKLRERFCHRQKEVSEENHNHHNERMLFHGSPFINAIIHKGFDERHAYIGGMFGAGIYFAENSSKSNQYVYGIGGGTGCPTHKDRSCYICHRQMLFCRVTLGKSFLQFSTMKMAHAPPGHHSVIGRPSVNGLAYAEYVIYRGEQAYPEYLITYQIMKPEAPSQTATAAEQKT

[2] = target: T1, Poly [ADP-ribose] polymerase tankyrase-1; assay: Inhibition of TNKS1 (unknown origin) using biotinylated NAD as substrate assessed as inhibition of autoPARsylation activity incubated for 1 hr by ELISA
[3] = Modulation of Wnt/beta-catenin signaling pathway in human DLD-1 cells assessed as induction of AXIN2 accumulation incubated for 24 hrs by ELISA; assay type: cell-based; settings: DLD-1, 24 h
[4] = target: T2, Poly [ADP-ribose] polymerase tankyrase-2 (Homo sapiens, UniProt Q9H2K2); assay: Inhibition of TNKS2 (unknown origin) using biotinylated NAD as substrate assessed as inhibition of autoPARsylation activity incubated for 1 hr by ELISA
T2 sequence (Q9H2K2 whole entry): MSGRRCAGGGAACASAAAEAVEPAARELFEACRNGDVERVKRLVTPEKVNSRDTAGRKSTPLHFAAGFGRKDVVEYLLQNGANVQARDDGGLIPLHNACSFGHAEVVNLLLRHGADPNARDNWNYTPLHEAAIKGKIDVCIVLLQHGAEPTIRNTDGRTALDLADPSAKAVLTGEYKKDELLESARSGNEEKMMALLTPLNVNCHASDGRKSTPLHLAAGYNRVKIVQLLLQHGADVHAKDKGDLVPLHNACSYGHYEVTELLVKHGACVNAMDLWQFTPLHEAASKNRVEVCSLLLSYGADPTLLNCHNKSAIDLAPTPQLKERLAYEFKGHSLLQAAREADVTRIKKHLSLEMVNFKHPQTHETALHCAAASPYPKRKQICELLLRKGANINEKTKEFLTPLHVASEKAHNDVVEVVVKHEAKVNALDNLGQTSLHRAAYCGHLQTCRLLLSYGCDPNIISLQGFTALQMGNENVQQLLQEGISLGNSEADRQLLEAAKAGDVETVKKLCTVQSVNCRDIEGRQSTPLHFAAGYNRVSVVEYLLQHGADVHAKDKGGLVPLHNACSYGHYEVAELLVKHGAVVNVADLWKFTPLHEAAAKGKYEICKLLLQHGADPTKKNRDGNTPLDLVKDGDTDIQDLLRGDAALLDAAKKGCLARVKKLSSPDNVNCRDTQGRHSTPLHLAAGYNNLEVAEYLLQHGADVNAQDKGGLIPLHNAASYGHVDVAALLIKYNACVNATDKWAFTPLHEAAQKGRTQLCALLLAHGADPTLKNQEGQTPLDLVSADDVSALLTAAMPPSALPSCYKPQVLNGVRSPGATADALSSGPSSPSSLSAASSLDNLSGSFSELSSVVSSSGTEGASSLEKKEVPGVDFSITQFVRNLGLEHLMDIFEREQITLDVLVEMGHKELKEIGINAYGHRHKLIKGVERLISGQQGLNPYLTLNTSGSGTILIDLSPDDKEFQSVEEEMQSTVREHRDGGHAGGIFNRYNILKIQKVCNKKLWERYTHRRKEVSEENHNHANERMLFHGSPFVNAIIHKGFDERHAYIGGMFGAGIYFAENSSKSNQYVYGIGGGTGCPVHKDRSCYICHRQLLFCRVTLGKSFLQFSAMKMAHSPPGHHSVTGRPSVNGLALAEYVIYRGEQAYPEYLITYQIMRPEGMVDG

[5] = target: Poly [ADP-ribose] polymerase 1 (Homo sapiens, UniProt P09874); assay: Inhibition of PARP-1 (unknown origin) using biotinylated NAD and NAD as substrate assessed as inhibition of auto-PARsylation incubated for 150 mins by TR-FRET assay
[6] = target: T1, Poly [ADP-ribose] polymerase tankyrase-1; assay: Binding affinity to recombinant human TNKS1 (1091 to 1327 residues) assessed as dissociation constant by ITC method

Poly [ADP-ribose] polymerase 1, sequence (P09874 whole entry, the tested form may be a part): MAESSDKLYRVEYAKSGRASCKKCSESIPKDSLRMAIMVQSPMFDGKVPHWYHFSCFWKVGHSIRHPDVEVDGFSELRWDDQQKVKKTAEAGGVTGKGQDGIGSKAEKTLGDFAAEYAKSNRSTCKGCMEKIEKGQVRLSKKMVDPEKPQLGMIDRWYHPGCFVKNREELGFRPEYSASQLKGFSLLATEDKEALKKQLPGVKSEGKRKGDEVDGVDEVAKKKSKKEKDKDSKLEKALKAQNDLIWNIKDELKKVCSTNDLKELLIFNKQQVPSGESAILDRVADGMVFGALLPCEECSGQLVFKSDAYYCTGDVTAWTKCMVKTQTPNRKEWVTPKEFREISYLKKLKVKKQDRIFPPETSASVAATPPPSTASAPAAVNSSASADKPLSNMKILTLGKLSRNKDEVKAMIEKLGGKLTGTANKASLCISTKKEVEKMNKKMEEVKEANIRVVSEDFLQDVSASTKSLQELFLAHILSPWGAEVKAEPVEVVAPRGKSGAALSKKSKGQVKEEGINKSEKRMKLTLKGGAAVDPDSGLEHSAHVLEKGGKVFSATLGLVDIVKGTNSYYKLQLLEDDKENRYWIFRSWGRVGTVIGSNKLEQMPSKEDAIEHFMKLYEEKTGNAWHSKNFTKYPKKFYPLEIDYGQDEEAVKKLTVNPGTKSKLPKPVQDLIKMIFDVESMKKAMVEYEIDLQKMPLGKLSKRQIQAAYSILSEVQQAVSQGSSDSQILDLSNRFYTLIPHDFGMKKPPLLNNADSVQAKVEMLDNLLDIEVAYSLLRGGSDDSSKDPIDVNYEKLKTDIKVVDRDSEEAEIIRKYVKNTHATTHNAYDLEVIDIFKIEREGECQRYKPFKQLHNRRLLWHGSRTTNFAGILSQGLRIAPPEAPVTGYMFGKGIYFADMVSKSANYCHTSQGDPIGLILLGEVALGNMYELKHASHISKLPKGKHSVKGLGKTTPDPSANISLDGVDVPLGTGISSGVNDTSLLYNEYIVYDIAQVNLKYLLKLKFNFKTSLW

| SMILES | IC50 [1] | IC50 [2] | EC50 [3] | IC50 [4] | IC50 [5] | Kd [6] |
| --- | --- | --- | --- | --- | --- | --- |
| Cc1ccc(-c2cn3ccnc3c(=O)[nH]2)cc1 | 1.5 µM | – | – | – | – | – |
| Cc1cc2c(=O)[nH]c(-c3ccc(C(C)(C)O)cc3)cn2c1 | – | 0.0023 µM | 0.23 µM | 0.0079 µM | 1.9 µM | – |
| CC(C)(O)c1ccc(-c2cn3c(F)c(F)cc3c(=O)[nH]2)cc1 | – | 0.0012 µM | 0.159 µM | 0.0035 µM | 1.3 µM | – |
| CC(C)(O)c1ccc(-c2cn3cc(Cl)cc3c(=O)[nH]2)cc1 | – | 0.0025 µM | 0.118 µM | 0.0094 µM | 0.63 µM | – |
| Cc1csc2c(=O)[nH]c(-c3ccc(C(C)(C)O)cc3)nc12 | – | 0.002 µM | 0.096 µM | 0.0015 µM | 0.44 µM | – |
| Cc1ccc2c(=O)[nH]c(-c3ccc([C@](C)(O)CCO)cc3)cn12 | – | 0.0008 µM | 0.018 µM | 0.001 µM | 0.77 µM | – |
| Cc1ncc2c(=O)[nH]c(-c3ccc(C(C)(C)O)cc3)cn12 | – | 0.012 µM | 0.749 µM | 0.014 µM | 23 µM | – |
| Cc1cc2c(=O)[nH]c(-c3ccc(C(C)(C)O)cc3)nn2n1 | – | 0.57 µM | 12 µM | 2.6 µM | – | – |
| Cc1ncc2c(=O)[nH]c(-c3ccc(C(C)(C)C)cc3)cn12 | – | 0.0029 µM | 0.21 µM | 0.0038 µM | 28 µM | – |
| Cc1ccc2c(=O)[nH]c(-c3ccc(C4(O)CC4)cc3)cn12 | – | 0.001 µM | 0.049 µM | 0.001 µM | 0.33 µM | – |
| Cc1ccc2c(=O)[nH]c(-c3ccc(C(C)(C)O)cc3)nn12 | – | 0.0008 µM | 0.028 µM | 0.0009 µM | 0.95 µM | – |
| CC(C)(O)c1ccc(-c2cn3cccc3c(=O)[nH]2)cc1 | – | 0.0027 µM | 0.12 µM | 0.0055 µM | 0.92 µM | 0.006 µM |
| Cc1ccc2c(=O)[nH]c(-c3ccc(C(C)(C)OCCO)cc3)cn12 | – | 0.0023 µM | 0.02 µM | 0.0015 µM | 0.693 µM | – |
| Cc1ccc2c(=O)[nH]c(-c3ccc(C4(O)COC4)cc3)cn12 | – | 0.0025 µM | 0.028 µM | 0.0018 µM | 0.35 µM | – |
| CC(C)(O)c1ccc(-c2cn3c(CO)ccc3c(=O)[nH]2)cc1 | – | 0.0098 µM | 0.58 µM | 0.0082 µM | 4.2 µM | – |
| Cc1ccc2c(=O)[nH]c(-c3ccc([C@](C)(O)CO)cc3)cn12 | – | 0.0026 µM | 0.082 µM | 0.002 µM | 0.604 µM | – |
| CC(C)(O)c1ccc(-c2cn3c(F)ccc3c(=O)[nH]2)cc1 | – | 0.0034 µM | 0.113 µM | 0.0061 µM | 2 µM | 0.006 µM |
| CC(C)(C)c1ccc(-c2cn3ccnc3c(=O)[nH]2)cc1 | – | 0.021 µM | 1.43 µM | – | – | – |
| Cc1cc2c(=O)[nH]c(-c3ccc(C(C)(C)O)cc3)cn2n1 | – | 0.013 µM | 0.51 µM | 0.036 µM | 3.7 µM | – |
| Cc1ccc2c(=O)[nH]c(-c3ccc([C@@](C)(O)CO)cc3)cn12 | – | 0.0019 µM | 0.093 µM | 0.0017 µM | 0.748 µM | – |
| Cc1ccc2c(=O)[nH]c(-c3ccc([C@@](C)(O)CCO)cc3)cn12 | – | 0.0021 µM | 0.016 µM | 0.0016 µM | 0.34 µM | – |
| CC(C)(C)c1ccc(-c2cn3cncc3c(=O)[nH]2)cc1 | – | 0.027 µM | 0.635 µM | 0.035 µM | – | – |
| CC(C)(O)c1ccc(-c2cn3cc(F)cc3c(=O)[nH]2)cc1 | – | 0.0019 µM | 0.147 µM | 0.0029 µM | 0.45 µM | – |
